Assay results reported in US20230061201A1, “COMPOSITION FOR PREVENTING OR TREATING CHRONIC OBSTRUCTIVE PULMONARYDISEASE COMPRISING REGORAFENIB AS ACTIVE INGREDIENT” (Chungbuk National University Industry-Academic Cooperation …, priority 2021, published 2023).

Experiments:
Assay type in all cases: in vivo, C57BL/6 mice
[1] = tested on: mouse animal model with emphysema induced by porcine pancreatic elastase (PPE); test: Immune cells in bronchoalveolar lavage fluid of PPE-induced emphysema mice; conditions: BAL fluid day 4
From the text: The present inventors performed an experiment to determine whether regorafenib has activity capable of treating chronic obstructive pulmonary disease. The initial response induced by PPE (porcine pancreatic elastase) representatively includes immune responses that occur in damaged lung tissue. The activated immune response promotes the proliferation of various immune cells and the secretion of various inflammatory mediators. Specifically, the overall number of immune cells increases with an increase in individual immune cells involved in the immune response. In particular, an increase in the numbers of macrophages, lymphocytes, eosinophils, and neutrophils is observed. The increase in the number of these cells can be confirmed through a bronchoalveolar lavage (BAL) fluid test.
Therefore, in the present invention, mice with chronic obstructive pulmonary disease, particularly emphysema, in which alveolar damage was induced by reducing elastin content using PPE, were prepared and then treated with regorafenib to thus analyze whether chronic obstructive pulmonary disease was ameliorated. Specifically, 6-week-old C57BL/6 mice were purchased and acclimatized for one week. Thereafter, the acclimatized 7-week-old mice (average 25 g) were orally administered with 200 µl of regorafenib (SelleckChem, BAY 73-4506) at a concentration of 5 mg/kg. […] The stained slide was analyzed and quantified using a microscope.
According to the method described above, a mouse animal model of chronic obstructive pulmonary disease was prepared by administering the mouse lungs with 5U of PPE, and in order to verify whether the immune response was modulated, one day before administration of PPE and on days 2 and 3 after administration of PPE, regorafenib (5 mg/kg) was administered thereto, and on day 4, bronchoalveolar lavage fluid was obtained and the immune cells therein were stained to thus quantitatively analyze the type of immune cells and the number of individual cells. […]

[2] = tested on: mouse animal model with emphysema induced by porcine pancreatic elastase (PPE); test: Alveolar size (mean linear intercept, Lm) in PPE-induced emphysema mice; conditions: regorafenib 5 mg/kg oral for one week from two weeks after PPE 5U nasal; lungs on week 3, H&E
From the text: One of the pathological indicators of chronic obstructive pulmonary disease is changed alveolar size. Changes in the alveolar size can be analyzed by quantifying the mean linear intercept (Lm) value, representing the average distance between the alveolar walls, in a microscopic field of view. When chronic obstructive pulmonary disease is induced, this value increases, indicating an increase in the alveolar size.
Therefore, the present inventors analyzed whether it is possible to alleviate changes in lung structure by measuring the change in Lm value due to treatment with regorafenib in a mouse animal model with emphysema, a chronic obstructive pulmonary disease, prepared over three weeks through administration of PPE (FIG. 2A).
Specifically, 6-week-old C57BL/6 mice were acclimatized for one week, after which the acclimatized 7-week-old mice (average 25 g) were subjected to nasal administration with saline and PPE [elastase from porcine pancreas] (EPC, EC134) at a concentration of 5U. […] The prepared block was cut using a sectioning machine, attached to a slide, subjected to H&E staining, and then quantified by measuring the Lm value based on microscopic images.

[3] = tested on: mouse animal model with emphysema induced by porcine pancreatic elastase (PPE); test: Lung function (flexiVent) in PPE-induced emphysema mice; conditions: regorafenib 5 mg/kg oral for one week from two weeks after PPE 5U nasal; flexiVent on week 3
From the text: In addition, the present inventors performed an experiment to determine whether regorafenib is able to restore lost function of damaged lungs in order to confirm whether regorafenib is able to treat chronic obstructive pulmonary disease.
Specifically, 6-week-old C57BL/6 mice were purchased and acclimatized for one week, after which the acclimatized 7-week-old mice (average 25 g) were subjected to nasal administration with saline and PPE [elastase from porcine pancreas] (EPC, EC134) at a concentration of 5U. Two weeks after administration, the mice were orally administered with 200 µl of regorafenib (SelleckChem, BAY 73-4506) at a concentration of 5 mg/kg for one week. Then, the mice were anesthetized using 300 µl of anesthetic on week 3, after which the lung function of each mouse was measured using a flexiVent (system for measuring the function of lungs) and quantified by subtracting the error value therefrom.

Q: How did the numbers of eosinophils ([1]; regorafenib 5 mg/kg oral) turn out when `CNC(=O)c1cc(Oc2ccc(NC(=O)Nc3ccc(Cl)c(C(F)(F)F)c3)c(F)c2)ccn1` [regorafenib] was run?
A: significantly decreased

Q: What about the numbers of neutrophils ([1]; regorafenib 5 mg/kg oral) of the same compound?
A: significantly decreased

Q: What about the “decrease of the number of immune cells increased due to PPE” value ([1]; regorafenib 5 mg/kg oral one day before and on days 2 and 3 after PPE 5U nasal) of the same compound?
A: about 50%

Q: And the “decrease of Lm value compared to the PPE treatment group” value [2]?
A: about 50%

Q: What about the lung function indicators [3] of the same compound?
A: restored
